Data as given in article PMC9320607, “Synthesis, Biological Evaluation and Docking Studies of Ring-Opened Analogues of Ipomoeassin F” (Molecules, 2022).

Experiments:
[1] = biological target: T1, Sec61-mediated protein translocation (membrane integration of Ii) (Canis lupus familiaris, UniProt P38377); experiment: In vitro membrane insertion assay of Ii with ER microsomes; format: biochemical, canine
T1 construct: cell-free translation system supplemented with ER microsomes derived from canine pancreas; from tissue; host or cells: canine pancreas ER microsomes (nuclease-treated); the Ii substrate was translated in vitro from T7-transcribed RNA
T1 sequence (P60058 whole entry): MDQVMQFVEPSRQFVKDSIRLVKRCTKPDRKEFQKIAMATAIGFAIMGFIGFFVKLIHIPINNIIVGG
T1 sequence (P38377 2-476): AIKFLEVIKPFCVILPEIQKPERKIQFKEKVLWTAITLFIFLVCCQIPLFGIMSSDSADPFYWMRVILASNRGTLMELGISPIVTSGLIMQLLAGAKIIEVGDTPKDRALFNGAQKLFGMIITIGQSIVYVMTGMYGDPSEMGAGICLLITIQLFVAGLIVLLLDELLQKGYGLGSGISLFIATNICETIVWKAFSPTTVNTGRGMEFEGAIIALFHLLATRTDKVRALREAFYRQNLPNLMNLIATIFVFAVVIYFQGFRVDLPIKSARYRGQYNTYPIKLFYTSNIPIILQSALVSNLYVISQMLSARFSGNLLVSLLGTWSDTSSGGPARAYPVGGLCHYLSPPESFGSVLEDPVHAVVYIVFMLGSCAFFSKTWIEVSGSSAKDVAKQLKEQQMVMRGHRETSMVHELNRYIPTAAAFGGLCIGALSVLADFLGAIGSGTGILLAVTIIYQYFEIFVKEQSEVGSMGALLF
T1 sequence (P60467 2-96, further chain): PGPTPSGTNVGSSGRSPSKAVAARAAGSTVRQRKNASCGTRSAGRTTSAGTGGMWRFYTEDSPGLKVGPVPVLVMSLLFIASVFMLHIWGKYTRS
Text: Having previously established that the principal molecular basis for the cytotoxicity of Ipom-F is its strong, yet reversible, binding to Sec61α and the resultant wide-ranging blockade of Sec61-mediated protein translocation at the ER [13], we sought evidence that this mechanism also underlies the cytotoxic effects of 1 and other open-chain analogues. […] For comparative purposes, we analyzed the effects of 2 [13] and two closed-chain compounds: Ipom-F and the diester-modified analogue 22 [11] in parallel (Figure 3A).
Following the resolution of radiolabeled proteins by SDS-PAGE (Figure 3B), we used the efficiency with which the N-terminal domain of the type II integral membrane protein Ii (short form of HLA class II histocompatibility antigen gamma chain, isoform 1) was N-glycosylated inside the ER lumen as a robust reporter for the authentic membrane integration of this model Sec61-dependent protein client (Figure 3B, right upper panel, 0Gly versus 2 Gly forms).
(§1) Linear DNA of the short form of human HLA class II histocompatibility antigen gamma chain (Ii; P04232, […], residues 17–232) or human glycophorin C (GypC; P04921) were generated by PCR and transcribed into RNA using T7 RNA polymerase (Promega). Membrane insertion assays (20 µL, 1 h at 30 °C, containing 6.5% (v/v) nuclease-treated ER microsomes (from stock with OD280 = 44/mL)), endoglycosidase Hf (New England Biolabs) treatment, sample resolution by SDS-PAGE (16% polyacrylamide gels) and gel drying were performed as previously described. Following exposure to a phosphorimaging plate for 24–72 h, radiolabeled products were visualized using a Typhoon FLA-7000 (GE Healthcare, Tokyo, Japan) and the ratio of the signal intensity for the N-glycosylated (XGly) and non-glycosylated (0Gly) forms obtained using AIDA v.5.0 (Raytest Isotopenmeβgeräte). This value was then expressed relative to the matched DMSO control (set to 100%) in order to estimate the mean relative insertion (± SEM) from insertion experiments performed in triplicate (n = 3, biologically independent experiments). IC50 value estimates were determined in Prism 8 (GraphPad, San Diego, CA, USA) using nonlinear regression to fit data to a curve of variable slope (four parameters) using the least-squares fitting method, with the top and bottom plateaus of the curve defined as 100% and 7.67% (the mean of all data at 500 µM across all compounds), respectively.

[2] = system: membrane integration of GypC; experiment: In vitro membrane insertion assay of GypC with ER microsomes (selectivity control); format: biochemical, canine; settings: 1 µM compound
Experimental: Following the successful synthesis of analogue 3, we first analyzed its effects on the in vitro membrane integration of our two model protein substrates, Ii and GypC (Figure 6A–C).
as §1, with “IC50 value estimates were determined in Prism 8 (GraphPad, San Diego, CA, USA) using nonlinear regression to fit data to a curve of variable slope (four parameters) using the least-squares fitting method, with the top and bottom plateaus of the curve defined as 100% and 7.67% (the mean of all data at 500 µM across all compounds), respectively.” left out

HCT116 Sec61α-WT cells = experiment: Resazurin-based cell viability assay in HCT116 Sec61α-WT cells; parameters: species or system human; settings: HCT116 Sec61α-WT cells, 72 h
Experimental: Parental (Sec61α-WT) […] All cell lines were maintained in a 5% CO2 humidified incubator at 37 °C. Cytotoxicity assays were performed in triplicate sets as previously described and viable cells were counted using an automated cell counter (Bio-Rad TC20) immediately before each experiment. Compound stock solutions in DMSO (10 mM) were diluted with supplemented culture media (MDA-MB-231 cells: high glucose DMEM; HCT116 Sec61α-WT and Sec61α-G80W cells: McCoy’s (modified) 5A) to make a series of gradient fresh working solutions at equal DMSO percentage immediately prior to each test. […] For MDA-MB-231 cells, the media were discarded and […] fresh medium containing 10% (v/v) alamarBlue HS cell viability reagent (resazurin stock solution) (ThermoFisher, Waltham, MA, USA, A50100) was added to each well. For Sec61α-WT or Sec61α-G80W HCT-116 cells, the media was not discarded and alamarBlue HS cell viability reagent (resazurin stock solution) (ThermoFisher, Waltham, MA, USA, A50100) was added to 10% (v/v). After that, all cells were incubated at 37 °C for a further 1–3 h and the emission of each well at 620 nm was detected using a Synergy H1 Hybrid multi-mode plate reader (BioTek, Agilent Technologies, Palo Alto, CA, USA) at excitation 580 nm. […] IC50 value estimates were determined using nonlinear regression to fit data to a curve of variable slope (four parameters) using the least-squares fitting method.

HCT116 Sec61α-G80W cells = experiment: Resazurin-based cell viability assay in HCT116 Sec61α-G80W cells; parameters: species or system human; settings: 50 nM, 72 h
Text: To confirm that Sec61α is the primary target of open-chain analogues and that this interaction underlies their cytotoxic effects, we next used a resazurin-based cell viability assay (Figure 3F) to compare the effects of each compound on the growth of HCT-116 cells that were wild-type for Sec61α (HCT116 Sec61α-WT) or carrying a heterozygous point mutant in SEC61A1 (HCT116 Sec61α-G80W) that confers resistance to Ipom-F, and reduces binding of mycolactone to the Sec61 translocon by mechanism that involves an alteration in translocon dynamics.
The human breast cancer cell line (MDA-MB-231) was maintained in a DMEM high glucose culture medium supplemented with 10% (v/v) fetal bovine serum (FBS) and 2 mM L-glutamine. […] Cytotoxicity assays were performed in triplicate sets as previously described and viable cells were counted using an automated cell counter (Bio-Rad TC20) immediately before each experiment. […] After that, all cells were incubated at 37 °C for a further 1–3 h and the emission of each well at 620 nm was detected using a Synergy H1 Hybrid multi-mode plate reader (BioTek, Agilent Technologies, Palo Alto, CA, USA) at excitation 580 nm. […] IC50 value estimates were determined using nonlinear regression to fit data to a curve of variable slope (four parameters) using the least-squares fitting method. […]

reduction in Ii membrane integration ([1]; 1 µM compound): 73–86%
IC50 ([1]; estimated from titration 500 µM–5 nM, read-out: IC50 (in vitro membrane integration of Ii)): 242 nM
Structure (SMILES): CC=C(C)C(=O)OC1C(O)C(OC2C(OC(CCCCC)CCCCC)OC(C)C(OC(C)=O)C2O)OC(COC(=O)CCC(=O)OCCCC)C1OC(=O)C=Cc1ccccc1 (stereo not drawn) [analogue 3]
effect on membrane integration of GypC [2]: did not affect
cell death (HCT116 Sec61α-WT cells; 50 nM): ~ 58%
IC50 (HCT116 Sec61α-WT cells; Homo sapiens, HCT-116, titration 25 µM–1 nM, read-out: IC50 (cytotoxicity)): 40 nM
effect on cell viability (HCT116 Sec61α-G80W cells): cell death was not observed
